Patent US20060057109A1 (priority 2002, published 2006)
Read-outs that look alike come from different tables or passages of the source.

Columns and labels:
[1] = test system: caspase 8 and caspase 9 in CPA-treated 9L/P450 cells; experiment: Caspase 8 and caspase 9 activity in extracts of CPA-treated cells; format: cell-based, rat; conditions: IAP expressed by retroviral transduction, cells treated with 1 mM CPA
Procedure: 9L/P450 cells were infected with retrovirus encoding the IAPs p35 or Survivin. […] Shown in FIG. 1B are the caspase 8 and caspase 9 activities of the individual cell lines (mean+/−half the range for n=2 separate experiments).
Caspase Activity Measurements: Caspase activities were assayed as described previously (Schwartz and Waxman, Mol Pharmacol. 60:1268-1279. (2001)). […] Floating and attached cells were collected, pooled, dissolved in lysis buffer (10 mM Hepes buffer (pH 7.4) containing 2 mM EDTA, 0.1% CHAPS detergent, 5 mM DTT, 350 ng/ml PMSF, 10 ng/ml pepstatin A, 10 ng/ml aprotinin, and 20 ng/ml leupeptin) and then subjected to three freeze-thaw cycles. Lysates were spun and the supernatant (cell extract) was assayed for caspase 3, 8 and 9 activities by incubation with caspase form-selective substrates: Ac-DEVD-AMC (Biomol; cat # P-411) for caspase 3 (Talanian et al., J Biol. Chem. 272:9677-9682 (1997); Thomberry et al., J Biol. Chem. 272:17907-17911 (1997)), LETD-AFC (BioRad; cat# 170-3186) for caspase 8 and Ac-LEHD-AFC (BioRad; cat# 170-3190) for caspase 9.

[2] = test system: 9L/P450 cells
[3] = test system: 9L/P450 cells; remark: listed apart in the source
[4] = test system: 9L/P450/p35-9 cells
Procedure: Cells were then cultured for up to 17 days following the initial drug treatment. […] Cells remaining on the plates at each indicated time point were stained with crystal violet. Data shown are mean+/−half the range for A595 values n=2 samples at each time point.
Growth Inhibition Assay: 9L/P450 and 9L/P450-derived cells lines were plated at 1.5×10^5 cells per well in 12 well dishes in 1.5 ml media unless indicated otherwise. […] Cells remaining on the plate at the indicated times were washed twice with cold PBS and then stained with crystal violet solution, as described previously (Schwartz and Waxman, Mol Pharmacol. 60:1268-1279. (2001)). The stain was eluted from the cells and the absorbance read at 595 nm to determine the relative protein content of each sample (Jounaidi et al., Cancer Res. 58:4391-4401 (1998)).

[5] = test system: 9L/LacZ bystander cells; experiment: Bystander cytotoxicity, colony formation assay; format: cell-based, rat
Procedure: The cytotoxicity conferred by 9L/P450 and 9L/P450/p35-9 cells on 9L/LacZ bystander cells was assayed using one of two protocols. […] Following this drug treatment cell survival was determined for each of the three cell lines (9L/P450, 9L/P450/p35-9 and 9L/LacZ) using a colony formation assay. In the experiment shown in FIGS. 6A and 6B (protocol 1) the 9L/LacZ bystander cells were plated on top of the 9L/P450 or 9L/P450/p35-9 cells, enabling the two cell populations to be in direct cell-cell contact. […]
Bystander Experiments. […] The cells were then grown in drug-free media for an additional 16 hr (i.e., 24 hr from the start of the second drug treatment), at which point the cells were trypsinized, collected, counted and replated at various densities in 6 well plates to allow for the growth of individual colonies, as follows: Drug-free control cells were replated in duplicate at 100, 150 and 250 cells/well. […] LacZ-positive colonies containing≧50 cells were counted. Cells were then re-stained with crystal violet and the total number of colonies was determined. The number of 9L/P450 or 9L/P450/p35-9 colonies on each plate was then calculated by subtracting number of the Lac Z-positive colonies from each sample. The colony efficiency (number of colonies/number of cells seeded) was then calculated for each treatment group. […]

[6] = test system: 9L/P450 cells; conditions: 1 × 8 hr 1 mM CPA
[7] = test system: 9L/P450/p35-9 cells; experiment: Colony formation assay after CPA treatment; format: cell-based, rat; conditions: 1 × 8 hr 1 mM CPA
Source text: Relative colony formation activities are shown in parenthesis.

[8] = human, in vivo; cited from earlier work
[9] = three 8 hr treatments with 1 mM CPA

## hIAP2: human IAP (inhibitor of apoptosis), myc-tagged cDNA, expressed by retroviral transduction
[1]
  inhibition of caspase activity: less effective caspase inhibition

## CCCCS(=N)(=O)CCC(N)C(=O)O (stereo not shown) [BSO, buthionine sulfoximine]
[2]
  effect of BSO pretreatment on cell growth: no effect on cell growth
[2]; BSO pretreatment (50 μM for 24 hr), then 1 mM CPA for 72 hr
  cell survival: 13%
[3]
  decrease in the cell's capacity to produce and release 4-OH-CPA into the culture media: 86%

## O=P1(N(CCCl)CCCl)NCCCO1 (stereo not shown) [CPA, cyclophosphamide]
[4]; 1 mM CPA continuously
  time to death of cells: 8 days
[4]; single 8 hr CPA treatment
  cell killing: not sufficient to kill
[4]; [9]
  day by which all cells died: ≤ 17 days
[5]; co-cultured with 9L/P450/p35-9 cells across a permeable membrane, second 8 hr CPA treatment
  bystander cell killing: 70-80%
[5]; co-cultured with CPA-pretreated 9L/P450 cells across a permeable membrane, second CPA treatment
  bystander cell killing: little or no bystander cell killing
[6]; No Drug = 100
  Relative colony formation activity (in parenthesis): 1.1 ± 0.5
[6]; mean ± SD n=3
  Colonies per 10,000 cells: 77
[2]; 1 mM CPA continuously
  time to death of cells: 3 to 4 days
[2]; 1 mM CPA for 72 hr
  cellular response to CPA in the absence of p35: cytotoxic response
[2]; 1 mM CPA for 72 hr, without BSO
  cell survival: 62%
[2]; single 8 hr CPA treatment
  cell killing: not sufficient to kill
[2]; [9]
  day by which all cells died: 6 to 9 days
[7]; No Drug = 100
  Relative colony formation activity (in parenthesis): 2.9 ± 0.9
[7]; mean ± SD n=3
  Colonies per 10,000 cells: 150 ± 49
[8]
  half-life: 8 h
